Experimental data: patent publication US20230301924A1, “PHARMACEUTICAL FORMULATION” (Janssen Pharmaceuticals, Inc., priority 2020, published 2023)

Tests used:
Type in all cases: physicochemical
[1] = Solubility test in TPGS with different ratios of PEG1000
Method: About 0.2 g of compound (a) was weighed into 1.5 mL HPLC vials, 0.6 g of molten TPGS, TPGS with 5%, 10% or 15% PEG1000 (in w/w of TPGS) were then added and kept stirring at 45° C. at 700 rpm. Additionally to each of these mixtures, 100 ppm of Ascorbic Palmitate were added. After stirring for 24 hours, they were transferred into filter centrifugal tube and centrifuged at 40° C. for 5 minutes at 14000 rpm rate. The solutions in the bottom of filter centrifugal tube were weighed into 25 mL volumetric flasks (about 10-20 mg), diluent was added ACN:H2O=1:1 v/v, ultrasonicated for 10 min and more diluent was added to scale and analyze by UPLC (see method above). The solid residues after solubility test were collected and analyzed by XRPD (the solid residue in TPGS and TPGS with 5% PEG1000 were washed with water at 50° C. 3 times and analyzed by XRPD).
Solubility test of compound (a) in TPGS with different ratio of PEG1000 after stirring at 45° C. for 96 hours were further tested to determine the effect of time on solubility and XRPD pattern.

[2] = Solubility test in PEG1000
Method: About 0.5 g of compound (a) was weighed into 4 mL glass vials, 1.5 g of molten PEG1000 were then added and kept stirring at 40° C. or 50° C. at 700 rpm. After stirring for 24 hours, the obtained mixtures were transferred into a filter centrifugal tube and centrifuged at 40° C. for 1 minute at 14000 rpm rate. The solution in the bottom of filter centrifugal tube wad weighed into 25 mL volumetric flasks (about 25 mg), diluent was added ACN:H2O=1:1 v/v, ultrasonicated for 10 min and more diluent was added to scale and analyzed by UPLC (see method above).

[3] = Solubility test in Gelucire 50/13 and PEG 3350
Method: Compound (a) was weighed into a 1.5 mL HPLC vial, added about 1 mL or 880 mg of molten media, then kept stirring at different temperature at 700 rpm (see details in Table 1). Compound (a) was added until a suspension was visually observable. After stirring for about 24 hours, the obtained mixtures were quickly transferred to a filter centrifugal tube and centrifuged at 40° C. for 1 minute at 14000 rpm rate. The solution in the bottom of the filter centrifugal tube was weighed into 10 mL or 25 mL volumetric flasks (about 15-20 mg), diluents were added (ACN: water=1:1 v/v for PEG3350 or MeOH:water=8:2 v/v for Gelucire 50/13), ultrasonicated for 10 min and more diluent was added to scale and analyzed by UPLC (see method above).

[4] = Solubility of compound (a) in mixed excipients (TPGS with Precirol ATO 5, PEG6000 or PEG3350)
Method: The solubility of these mixed excipients with compound (a) was then tested. Different ratios of the excipients were mixed at different temperatures (Table 6); then compound (a) was added and the mixtures stirred at the same temperature. The samples were analyzed by UPLC (see method above).

COc1cc(NC(C(=O)c2c[nH]c3ccc(OC(F)(F)F)cc23)c2ccc(Cl)cc2OC)cc(S(C)(=O)=O)c1 (centres unmarked) [compound (a)]
Solubility ([1]; in TPGS + 5 vol % PEG1000 + 100 ppm AP, 45° C., 96 h): 186 mg/g
Solubility ([1]; in TPGS + 5 vol % PEG1000, 45° C., 24 h): 263 mg/g
Solubility ([1]; in TPGS + 10 vol % PEG1000 + 100 ppm AP, 45° C., 96 h): 157 mg/g
Solubility ([1]; in TPGS + 10 vol % PEG1000, 45° C., 24 h): 206 mg/g
Solubility ([1]; in TPGS + 15 vol % PEG1000 + 100 ppm AP, 45° C., 96 h): 144 mg/g
Solubility ([1]; in TPGS + 15 vol % PEG1000, 45° C., 24 h): 179 mg/g
Solubility ([1]; in TPGS + 100 ppm AP, 45° C., 96 h): 225 mg/g
Solubility ([1]; in TPGS, 45° C., 24 h): 274 mg/g
Solubility ([2]; in PEG1000): about 140 mg/g
Solubility ([2]; in PEG 1000, 40° C., 700 rpm for 24 hours): 141 mg/g
Solubility ([2]; in PEG 1000, 50° C., 700 rpm for 24 hours): 146 mg/g
Solubility ([3]; in Gelucire 50/13, 55° C., 700 rpm for 24 hours): 141 mg/g
Solubility ([3]; in Gelucire 50/13, 60° C., 700 rpm for 24 hours): 148 mg/g
Solubility ([3]; in Gelucire 50/13 after stirring at 55° C. and 60° C. for 24 hours): higher than 120 mg/g
Solubility ([3]; in PEG 3350, 60° C., 700 rpm for 24 hours): 112 mg/g
Solubility ([3]; in PEG 3350, 65° C., 700 rpm for 24 hours): 121 mg/g
Solubility ([3]; in PEG 3350 at both 60° C. and 65° C.): ≤ 120 mg/g
Solubility ([4]; in TPGS:ATO5 90:10 w/w, 60° C.): 216.1 mg/g
Solubility ([4]; in TPGS:ATO5 90:10 w/w, 65° C.): 219.0 mg/g
Solubility ([4]; in TPGS:ATO5 95:5 w/w, 60° C.): 270.0 mg/g
Solubility ([4]; in TPGS:ATO5 95:5 w/w, 65° C.): 295.5 mg/g
Solubility ([4]; in TPGS:ATO5 98:2 w/w, 60° C.): 228.2 mg/g
Solubility ([4]; in TPGS:ATO5 98:2 w/w, 65° C.): 248.5 mg/g
Solubility ([4]; in TPGS:PEG3350 90:10 w/w, 55° C.): 71.0 mg/g
Solubility ([4]; in TPGS:PEG3350 90:10 w/w, 60° C.): 76.2 mg/g
Solubility ([4]; in TPGS:PEG6000 90:10 w/w, 55° C.): 60.8 mg/g
Solubility ([4]; in TPGS:PEG6000 90:10 w/w, 60° C.): 66.6 mg/g
Solubility ([4]; in TPGS:PEG6000 95:5 w/w, 55° C.): 81.0 mg/g
Solubility ([4]; in TPGS:PEG6000 95:5 w/w, 60° C.): 84.0 mg/g
Solubility ([4]; in TPGS:PEG6000 98:2 w/w, 55° C.): 63.0 mg/g
Solubility ([4]; in TPGS:PEG6000 98:2 w/w, 60° C.): 66.8 mg/g
Solubility ([4]; in the Precirol ATO 5/TPGS system): > 200 mg/g
